The record followed here is US12233047B2, “Pharmaceutical combination and use thereof” (ASCENTAGE PHARMA (SUZHOU) CO., LTD., priority 2019, dated 2025).

The test system of assay [1] is Human AML cell line MV-4-11 (FLT3-ITD positive and wild type TP53 gene). Nature of the assay: Human MV-4-11 AML subcutaneous mouse xenograft model. The class given is in vivo. The note with it: MV-4-11 subcutaneous xenograft, Compound 23 10 mg/kg, Compound C 30 mg/kg. As for the experimental part: The formulation of Compound C was prepared as homogenous suspension in 0.2% HPMC using a mortar. The drug suspension was prepared every three days or once a week and placed at 4° C. when not in use. Before use, the drug suspension was placed at room temperature and shaken to mix well. The formulation of Compound C was administered to mice via p.o. in a volume of 10 mL/kg. […] The drug suspension was prepared once every other day and placed at 4° C. when not in use. Before use, the drug suspension was placed at room temperature and shaken well. […] MV-4-11 cells (Human AML cell line MV-4-11 (FLT3-ITD positive and wild type TP53 gene)) were maintained in IMDM (Cat. C12440500BT, GIBCO), with 10% fetal bovine serum (Cat. 10099-141, GIBCO), 1% L-glutamine, 100 U/mL penicillin G and 100 μg/mL streptomycin (Cat. GNM15140, Hangzhou Geno Biomedical Technology Co., Ltd). Cells were incubated at 37° C. in a humidified incubator with 5% CO2. Six to eight weeks old, female, NOD SCID and BALB/c nude mice were used. Animals were obtained from Vital River Laboratories (VRL, Beijing, China, license number SCXK(J) 2012-0001 and SCXK(J) 2016-0006). The body weights were 17-24 g. Randomization was conducted when the size of xenograft tumors reached 100-150 mm^3. Based on the size of the tumor and body weight, animals were randomly assigned into experimental groups. […] MV-4-11 subcutaneous xenograft models were established by subcutaneously injecting tumor cells (1×10^7 cells (50% Matrigel)/mouse) into the right flank of the mouse under the sterile condition. When the tumors reached an appropriate size (100-200 mm^3), mice were randomized into 6 mice per group and treatment was initiated (day 1) according to Table 4. [table] The tumors sizes and animal body weights were measured twice a week. Tumor volumes were estimated from measurements of two diameters of the individual tumors as follows: Tumor Volume (mm^3)=(a×b^2)/2 Relative tumor volume (RTV) were calculated according to the follows: RTV=Vt/V1 where V1 and Vt were respectively the average tumor volume on the first day of treatment (day 1) and the average tumor volume on a certain time point (day T). Standard NCI procedures were used to calculate tumor parameters (Teicher, B. A. (2011). “Tumor Models in Cancer Research.” Second Edition, Human Press). Percent tumor growth inhibition (% T/C) was calculated as the mean RTV of treated tumors (T) divided by the mean RTV of control tumors (C)×100%. […] A body weight loss (mean of group) of greater than 20%, or greater than 20% of drug deaths are considered to indicate an excessively toxic dosage. The synergistic analysis was performed using the following formula described in Clarke R. Issues in experimental design and endpoint analysis in the study of experimental cytotoxic agents in vivo in breast cancer and other models[J]. Breast Cancer Research & Treatment, 1997, 46(2-3):255-278, which is incorporated by reference in its entirety: expected value=(A/C)×(B/C); actual value=(AB)/C; A: RTV of drug A; B: RTV of drug B; C=RTV of the vehicle control group; AB=RTV of the combination group. Ratio=expected/actual value. […] A ratio=1 indicates the two drugs have additive effects. A ratio <1 indicates the two drugs may have antagonist effects. According to the earlier publication (Gao, H., et al. (2015). “High-throughput screening using patient-derived tumor xenografts to predict clinical trial drug response” Nat Med 21: 1318), additional measurements of response included stable disease (SD), partial tumor regression (PR), and complete regression (CR) were determined by comparing tumor volume change at day t to its baseline: tumor volume change (%)=(Vt−V1)/V1. […] For each time t, the average of tumor volume change from t=1 to t was also calculated. […]
In general terms: Xenograft models place foreign cells or tissue in a host animal.

Assay [2] concerns Human AML cell line MOLM-13 (FLT3-ITD positive and wild type TP53 gene). Nature of the assay: Human MOLM-13 AML systemic mouse xenograft model, survival. The class given is in vivo. The note with it: MOLM-13 systemic model, Compound 23 10 mg/kg, Compound C 20 mg/kg, p.o. q2d × 21 d. As to the method: The formulation of Compound C was prepared as homogenous suspension in 0.2% HPMC using a mortar. The drug suspension was prepared every three days or once a week and placed at 4° C. when not in use. Before use, the drug suspension was placed at room temperature and shaken to mix well. The formulation of Compound C was administered to mice via p.o. in a volume of 10 mL/kg.
The formulation of Compound 23 was prepared in 0.2% HPMC in a mortar to generate homogenous suspension. The drug suspension was prepared once every other day and placed at 4° C. when not in use. Before use, the drug suspension was placed at room temperature and shaken well. The formulation of Compound 23 was administered to mice via p.o. in a volume of 10 mL/kg.
MOLM-13 cell lines (Human AML cell line MOLM-13 (FLT3-ITD positive and wild type TP53 gene)) were maintained in RPMI-1640 (Cat. C11875500BT, GIBCO) with 10% fetal bovine serum (Cat. 10099-141, GIBCO), 1% L-glutamine, 100 U/mL penicillin G and 100 μg/mL streptomycin (Cat. GNM15140, Hangzhou Geno Biomedical Technology Co., Ltd). Cells were incubated at 37° C. in a humidified incubator with 5% CO2.
Six to eight weeks old, female, NOD SCID and BALB/c nude mice were used. Animals were obtained from Vital River Laboratories (VRL, Beijing, China, license number SCXK(J) 2012-0001 and SCXK(J) 2016-0006). The body weights were 17-24 g.
MOLM-13 systemic tumor model were established by injecting tumor cells into the tail vein (10×10^6 cells/mouse) under the sterile condition. To establish the MOLM-13 systemic model, all animals were intraperitoneally injected (i.p.) with cyclophosphamide (150 mg/kg) for two consecutive days before the inoculation of MOLM-13 cells. On the third day after cell inoculation, animals were randomized into 10 mice per group and treatment was initiated (day 1) according to Table 2.
The animals were euthanized when the experimental animals had symptoms such as weight loss and weight loss greater than 20%, limb paralysis, tumor metastasis to the eye causing ocular protrusion, tumor metastasis to the abdominal cavity causing abdominal enlargement. These severe health issues were considered as the same as animal death caused by tumor growth and the affected animals were sacrificed immediately.
The date of the last mouse died (the last measurement) was used for analysis of median overall survival and the generation of Kaplan-Meier plots. Survival curves of different treatment groups were compared using log-rank test with Bonferroni's multiple test. All data were analyzed in SPSS version 18.0 (IBM, Armonk, NY, U.S.A.). Prism version 6 (GraphPad Software Inc., San Diego, CA, U.S.A.) was used for graphic presentation.

Turning to `CCN1[C@@H](C(=O)NC23CCC(C(=O)O)(CC2)CC3)[C@H](c2cccc(Cl)c2F)[C@]2(C(=O)Nc3cc(Cl)ccc32)C12CCCCC2` [Compound C], the “Tumor weight on D 22 (Mean ± SEM)” value in assay [1] (day 22, p.o. q2d × 22 d, vehicle 2.29 ± 0.29, in g (unit assumed)) is on record as 1.45 ± 0.32. In addition, the “T/C(%)@D 22” value in assay [1] (mean RTV treated/control, day 22, p.o. q2d) turned out to be 59.6%. The “RTV@D 22” value in assay [1] (relative tumor volume day 22, p.o. q2d, vehicle 18.2 ± 3.3) is recorded as 10.8 ± 1.6. For the same compound, the “Median survival time of mice” value in assay [2] (vehicle 19 days) is listed as 25.5 days. In addition, the “Prolonged survival time of mice” value in assay [2] (versus vehicle) is 6.5 days.
